According to paper PMC5031696, “Synthesis, Biodistribution and In vitro Evaluation of Brain Permeable High Affinity Type 2 Cannabinoid Receptor Agonists [^11C]MA2 and [^18F]MA3” (Frontiers in Neuroscience, 2016):

Experiments:
[1] = test system: CB2; design: method as in Evens et al., 2011; conditions: ref Evens et al., 2011; cited from earlier work
[2] = biodistribution studies in male NMRI mice; type: in vivo, mouse; conditions: mouse, in vivo; for % ID bladder + urine / % ID blood / % ID bone / % ID heart / % ID intestines / % ID kidneys / % ID liver / % ID lungs / % ID pancreas / % ID spleen / % ID stomach / SUV blood / SUV bone / SUV brain / SUV heart / SUV kidneys / SUV liver / SUV lungs / SUV pancreas / SUV spleen / % ID brain: iv
Protocol: The tissue distribution and kinetics of [^11C]MA2 and [^18F]MA3 were studied in male NMRI mice at 2, 10, 30, and 60 min post injection of the tracer. The results of the biodistribution studies are presented in Table 1 ([^11C]MA2) and Table 2 ([^18F]MA3) as percentage of injected dose (% ID) and standard uptake value (SUV).
The biodistribution of [^11C]MA2 and [^18F]MA3 was studied in normal male Naval Medical Research Institute (NMRI) mice. A solution of HPLC-purified [^11C]MA2 or [^18F]MA3 was diluted with saline to obtain an ethanol concentration < 10%. Mice were anesthetized with isoflurane (2% in oxygen) and injected intravenously (i.v.) with [^11C]MA2 (~ 9.25 MBq) or [^18F]MA3 (~ 0.92 MBq) via a lateral tail vein. The mice were sacrificed by decapitation at 2, and 60 min post injection (for [^11C]MA2, n = 4) and at 2, 10, 30, or 60 min post injection (for [^18F]MA3, n = 3 or 4 per time point) and dissected. Blood, organs, and other body parts were collected in tared tubes and the radioactivity in each tube was measured using an automated gamma counter. The tubes containing selected organs and blood were weighed. For calculation of total radioactivity in blood, blood mass was assumed to be 7% of the body mass (Fritzberg et al., [1982]). Quantitative data are expressed as mean ± standard deviation (SD). Means were compared using an unpaired two-tailed student t-test. Values were considered statistically significant for P ≤ 0.05.

SMILES: Cc1c(CCN2CCOCC2)c2cc(O[11CH3])ccc2n1C(=O)c1cccc(Cl)c1Cl [[^11C]GW405833]
- binding affinity for CB2 [1]: 35 nM

SMILES: Fc1ccc(-c2noc(CCCNc3cnc4ccc(OCC[18F])cc4c3)n2)c(Cl)c1 [[^18F]MA3]
- blood % ID 2 min/60 min ratio ([2]; male, NMRI): 5.2
- brain % ID 2 min/60 min ratio ([2]; male, NMRI): 9.2
- % ID bladder + urine ([2]; male, NMRI, 2 min): 0.2 ± 0.2 % ID
- % ID blood ([2]; male, NMRI, 2 min): 5.4 ± 0.4 % ID
- % ID bone ([2]; male, NMRI, 2 min): 5.3 ± 1.2 % ID
- % ID heart ([2]; male, NMRI, 2 min): 1.2 ± 0.1 % ID
- % ID intestines ([2]; male, NMRI, 2 min): 9.4 ± 3.9 % ID
- % ID kidneys ([2]; male, NMRI, 2 min): 9.0 ± 1.2 % ID
- % ID liver ([2]; male, NMRI, 2 min): 31.4 ± 8.4 % ID
- % ID lungs ([2]; male, NMRI, 2 min): 1.2 ± 0.3 % ID
- % ID pancreas ([2]; male, NMRI, 2 min): 1.4 ± 0.3 % ID
- % ID spleen ([2]; male, NMRI, 2 min): 0.4 ± 0.1 % ID
- % ID stomach ([2]; male, NMRI, 2 min): 1.4 ± 0.2 % ID
- SUV blood ([2]; male, NMRI, 2 min): 0.8 ± 0.1
- SUV bone ([2]; male, NMRI, 2 min): 0.4 ± 0.1
- SUV brain ([2]; male, NMRI, 2 min): 1.1 ± 0.1
- SUV heart ([2]; male, NMRI, 2 min): 3.4 ± 0.3
- SUV kidneys ([2]; male, NMRI, 2 min): 5.4 ± 0.4
- SUV liver ([2]; male, NMRI, 2 min): 7.2 ± 2.0
- SUV lungs ([2]; male, NMRI, 2 min): 2.8 ± 0.7
- SUV pancreas ([2]; male, NMRI, 2 min): 3.0 ± 0.5
- SUV spleen ([2]; male, NMRI, 2 min): 5.1 ± 0.6
- % ID bladder + urine ([2]; male, NMRI, 10 min): 0.4 ± 0.0 % ID
- % ID blood ([2]; male, NMRI, 10 min): 2.2 ± 0.3 % ID
- % ID bone ([2]; male, NMRI, 10 min): 3.5 ± 0.2 % ID
- % ID brain ([2]; male, NMRI, 10 min): 1.0 ± 0.1 % ID
- % ID heart ([2]; male, NMRI, 10 min): 0.3 ± 0.0 % ID
- % ID intestines ([2]; male, NMRI, 10 min): 30.8 ± 6.1 % ID
- % ID kidneys ([2]; male, NMRI, 10 min): 1.6 ± 0.2 % ID
- % ID liver ([2]; male, NMRI, 10 min): 26.1 ± 3.4 % ID
- % ID lungs ([2]; male, NMRI, 10 min): 0.5 ± 0.0 % ID
- % ID pancreas ([2]; male, NMRI, 10 min): 0.4 ± 0.1 % ID
- % ID spleen ([2]; male, NMRI, 10 min): 0.3 ± 0.1 % ID
- % ID stomach ([2]; male, NMRI, 10 min): 0.5 ± 0.0 % ID
- SUV blood ([2]; male, NMRI, 10 min): 0.3 ± 0.0
- SUV bone ([2]; male, NMRI, 10 min): 0.3 ± 0.0
- SUV brain ([2]; male, NMRI, 10 min): 0.5 ± 0.0
- SUV heart ([2]; male, NMRI, 10 min): 0.6 ± 0.0
- SUV kidneys ([2]; male, NMRI, 10 min): 1.1 ± 0.1
- SUV liver ([2]; male, NMRI, 10 min): 4.7 ± 0.7
- SUV lungs ([2]; male, NMRI, 10 min): 0.7 ± 0.1
- SUV pancreas ([2]; male, NMRI, 10 min): 0.8 ± 0.0
- SUV spleen ([2]; male, NMRI, 10 min): 0.5 ± 0.0
- % ID bladder + urine ([2]; male, NMRI, 30 min): 1.7 ± 0.3 % ID
- % ID blood ([2]; male, NMRI, 30 min): 1.2 ± 0.1 % ID
- % ID bone ([2]; male, NMRI, 30 min): 1.6 ± 0.5 % ID
- % ID brain ([2]; male, NMRI, 30 min): 0.3 ± 0.1 % ID
- % ID heart ([2]; male, NMRI, 30 min): 0.1 ± 0.0 % ID
- % ID intestines ([2]; male, NMRI, 30 min): 56.2 ± 5.4 % ID
- % ID kidneys ([2]; male, NMRI, 30 min): 1.0 ± 0.2 % ID
- % ID liver ([2]; male, NMRI, 30 min): 17.3 ± 6.7 % ID
- % ID lungs ([2]; male, NMRI, 30 min): 0.2 ± 0.0 % ID
- % ID pancreas ([2]; male, NMRI, 30 min): 0.2 ± 0.1 % ID
- % ID spleen ([2]; male, NMRI, 30 min): 0.1 ± 0.0 % ID
- % ID stomach ([2]; male, NMRI, 30 min): 0.8 ± 1.0 % ID
- SUV blood ([2]; male, NMRI, 30 min): 0.2 ± 0.0
- SUV bone ([2]; male, NMRI, 30 min): 0.1 ± 0.0
- SUV brain ([2]; male, NMRI, 30 min): 0.2 ± 0.0
- SUV heart ([2]; male, NMRI, 30 min): 0.4 ± 0.1
- SUV kidneys ([2]; male, NMRI, 30 min): 0.6 ± 0.1
- SUV liver ([2]; male, NMRI, 30 min): 3.7 ± 1.4
- SUV lungs ([2]; male, NMRI, 30 min): 0.4 ± 0.1
- SUV pancreas ([2]; male, NMRI, 30 min): 0.4 ± 0.1
- SUV spleen ([2]; male, NMRI, 30 min): 0.5 ± 0.3
- % ID blood ([2]; male, NMRI, 60 min): 1.0 ± 0.3 % ID
- % ID bone ([2]; male, NMRI, 60 min): 2.2 ± 0.3 % ID
- % ID brain ([2]; male, NMRI, 60 min): 0.1 ± 0.0 % ID
- % ID heart ([2]; male, NMRI, 60 min): 0.1 ± 0.0 % ID
- % ID kidneys ([2]; male, NMRI, 60 min): 0.7 ± 0.3 % ID
- % ID liver ([2]; male, NMRI, 60 min): 10.2 ± 5.2 % ID
- % ID lungs ([2]; male, NMRI, 60 min): 0.1 ± 0.0 % ID
- % ID pancreas ([2]; male, NMRI, 60 min): 0.1 ± 0.0 % ID
- % ID spleen ([2]; male, NMRI, 60 min): 0.03 ± 0.01 % ID
- % ID stomach ([2]; male, NMRI, 60 min): 4.4 ± 5.1 % ID
- SUV blood ([2]; male, NMRI, 60 min): 0.1 ± 0.0
- SUV bone ([2]; male, NMRI, 60 min): 0.2 ± 0.0
- SUV brain ([2]; male, NMRI, 60 min): 0.1 ± 0.0
- SUV heart ([2]; male, NMRI, 60 min): 0.3 ± 0.0
- SUV kidneys ([2]; male, NMRI, 60 min): 0.5 ± 0.1
- SUV lungs ([2]; male, NMRI, 60 min): 0.3 ± 0.1
- SUV pancreas ([2]; male, NMRI, 60 min): 0.3 ± 0.1
- SUV spleen ([2]; male, NMRI, 60 min): 0.5 ± 0.1
- accumulation in the spleen [2]: no accumulation
